The text below walks through data of US11999697B2, “Methods and compositions for inhibition of dihydroorotate dehydrogenase” (OHIO STATE INNOVATION FOUNDATION, priority 2018, dated 2024).

Counter-ions that a name gives are not always drawn.

In series [1] the test system is IDH2-R140Q/Flt3-ITD spleen cells (murine AML). As to the kind of experiment: IDH2-R140Q/Flt3-ITD adoptive transfer model. Type of series: in vivo, NCG mice. Conditions: daily oral gavage; Cpd3 50 mg/kg, enasidenib 100 mg/kg. The text has this: Leukemic cells derived from a spontaneous murine model of Idh2/Flt3 AML, as reported by Shih et al (Cancer Discov. 7(5):494-505), were engrafted via adoptive transfer to generate an aggressive model of AML suitable for testing of therapeutic agents. Briefly, 6-8 week old mice harboring a heterozygous internal tandem duplication of FMS-like tyrosine kinase 3 (Flt3-ITD), a heterozygous point mutation of isocitrate dehydrogenase 2 (Idh2-R140Q) preceeded by a loxP flanked STOP codon, and Cre recombinase under the MX dynamin like GTPase 1 (Mx1) promoter were injected i.p. with polyinosinic:polycytidylic acid (poly(I:C)), activating Cre recombinase and inducing hematopoietic-specific expression of the Idh2-R140Q mutation. Spleen cells from these mice were collected after the development of lethal AML (defined by study removal criteria), typically 8-14 months post-poly(I:C) injection. 1×10^5 spleen cells from a single leukemic donor were engrafted by tail vein injection into 6 week old immune deficient NOD-Prkdc^em26Cd52//2rg^em26Cd22/NjuCrl mice (NCG; Charles River). At one week post-engraftment, animals were randomized to vehicle (5% EtOH, 10% Kolliphor EL, in PBS), enasidenib (100 mg/kg), and HOSU-3 (50 mg/kg) treatment arms and dosed by daily oral gavage. Personnel responsible for animal monitoring, dosing, and decisions regarding euthanasia were blinded to treatment arms. Survival was assessed using Kaplan-Meier analysis and p-values were determined using the log-rank test and adjusted using Holm's method.

Series [2] deals with AML cell lines (MOLM13, MV4-11, THP1, HL-60, and OCI-AML3).
Procedure: MTS assay for cell growth/viability: Mitochondrial activity was measured to determine cell proliferation using an MTS assay (tetrazolium dye 3′[4,5-dimethylthiazol-2-yl]-2,5-diphenyl-tetrazolium bromide). Metabolically active cells convert MTS tetrazolium salt into a purple formazan product that is soluble in tissue culture medium. The amount of formazan measured at 490 nm absorbance is proportional to the number of proliferating cells. […] Triplicate wells were set up for each condition. At 96 hours, the MTS reagent was added and after approximately 4 hours the plates were read in a spectrophotometer. MTS assays in primary AML cells were done in a similar manner as the cell lines with the following changes: 100K cells were plated per well, and the MTS was done in the presence of an HS5 stromal cell line to support the in vitro growth of the primary cells. Primary cells were incubated with MTS for approximately 8-12 hours (varies with the samples) before reading the absorbance.
Cell proliferation assays were carried out using the MTS assay described herein using five AML cell lines (i.e., MOLM13, MV4-11, THP1, HL-60, and OCI-AML3) with varied genetic backgrounds. The assays were carried out in a blinded fashion.

For the compound `CC(C)(O)CNc1nc(Nc2ccnc(C(F)(F)F)c2)nc(-c2cccc(C(F)(F)F)n2)n1` [Enasidenib, reference compound], the “Median survival” value in series [1] came out at 34 days.

Take `CCOc1ccc(-c2ccc(-c3cc(C(=O)O)c4cc(F)ccc4n3)cc2)cc1` [sodium salt form of Cpd3, Sodium 2-(4′-Ethoxy-[1,1′-biphenyl]-4-yl)-6-fluoroquinoline-4-carboxylate]: the “cytotoxicity compared to the free acid form and brequinar” value in series [2] is recorded as “equally cytotoxic against AML cell lines”.
